The supplement of paper PMC13380429

Columns and labels:
Conditions in all cases: 72 h
[1] = system: U2OS; experiment: drug sensitivity score (DSS) for viability; higher = more toxic; extreme values may be limits of the assay
[2] = system: Vero E6; experiment: as above
[3] = system: HepG2; experiment: as above
[4] = system: Caco-2; experiment: as above
[5] = system: U2OS; experiment: relative viability EC50 (midpoint between 100% and the lowest measured viability); higher = less toxic
[6] = system: Vero E6; experiment: as above
[7] = system: HepG2; experiment: as above
[8] = system: Caco-2; experiment: as above
[9] = system: U2OS; experiment: cell viability relative to DMSO; higher = less toxic
[10] = system: Vero E6; experiment: as above
[11] = system: HepG2; experiment: as above
[12] = system: Caco-2; experiment: as above
[13] = system: Calu-3; experiment: drug sensitivity score (DSS) for viability; higher = more toxic; extreme values may be limits of the assay
[14] = system: Calu-3; experiment: relative viability EC50 (midpoint between 100% and the lowest measured viability); higher = less toxic
[15] = system: Calu-3; experiment: cell viability relative to DMSO; higher = less toxic

| SMILES | drug sensitivity score [1] | drug sensitivity score [2] | drug sensitivity score [3] | drug sensitivity score [4] | relative viability EC50 [5] [nM] | relative viability EC50 [6] [nM] | relative viability EC50 [7] [nM] | relative viability EC50 [8] [nM] | cell viability ([9]; 1 nM) [%] | cell viability ([9]; 10 nM) [%] | cell viability ([9]; 100 nM) [%] | cell viability ([9]; 1000 nM) [%] | cell viability ([9]; 10000 nM) [%] | cell viability ([10]; 1 nM) [%] | cell viability ([10]; 10 nM) [%] | cell viability ([10]; 100 nM) [%] | cell viability ([10]; 1000 nM) [%] | cell viability ([10]; 10000 nM) [%] | cell viability ([11]; 1 nM) [%] | cell viability ([11]; 10 nM) [%] | cell viability ([11]; 100 nM) [%] | cell viability ([11]; 1000 nM) [%] | cell viability ([11]; 10000 nM) [%] | cell viability ([12]; 1 nM) [%] | cell viability ([12]; 10 nM) [%] | cell viability ([12]; 100 nM) [%] | cell viability ([12]; 1000 nM) [%] | cell viability ([12]; 10000 nM) [%] | drug sensitivity score [13] | relative viability EC50 [14] [nM] | cell viability ([15]; 1 nM) [%] | cell viability ([15]; 10 nM) [%] | cell viability ([15]; 100 nM) [%] | cell viability ([15]; 1000 nM) [%] | cell viability ([15]; 10000 nM) [%] |
| --- | --- | --- | --- | --- | --- | --- | --- | --- | --- | --- | --- | --- | --- | --- | --- | --- | --- | --- | --- | --- | --- | --- | --- | --- | --- | --- | --- | --- | --- | --- | --- | --- | --- | --- | --- |
| O[C@@H](CN1CCNCC1)Cn1c2ccc(Br)cc2c2cc(Br)ccc21 [BAX-channel-blocker] | 6.3 | 6.6 | 6.3 | 7 | 2660 | 2590 | 2780 | 2060 | 97.6 | 102 | 97.8 | 93.9 | 3.8 | 101 | 96.5 | 96.1 | 92.9 | 0.2 | 91.2 | 102 | 90.4 | 95 | 0.2 | 100 | 104 | 93.6 | 87.7 | 10.4 |  |  |  |  |  |  |  |
| O=C(O)c1ccc2cc(-c3ccc(O)c(C45CC6CC(CC(C6)C4)C5)c3)ccc2c1 [CD-437] | 7.5 | 4.2 | 9.9 | 9.5 | 1880 |  | 685 | 436 | 101 | 100 | 98.7 | 84.7 | 9.8 | 107 | 99.1 | 104 | 87.6 | 54.7 | 108 | 95.4 | 105 | 48.8 | 29.3 | 99.4 | 92.8 | 89.4 | 56.2 | 36.8 | 6.5 | 1780 | 92.7 | 101 | 93.3 | 85.7 | 24.4 |
| Fc1ccccc1CNCc1ccc(-c2ccnc3[nH]ccc23)cc1 [OXA-06] | 1.8 | 0.4 | 0 | 0 |  | > 10000 | > 10000 | > 10000 | 98.6 | 102 | 96.8 | 97.2 | 69.8 | 103 | 95.6 | 97.3 | 97.6 | 85.4 | 105 | 90.4 | 108 | 107 | 86.9 | 91.3 | 103 | 91.5 | 101 | 90.2 | 0 | > 10000 | 111 | 106 | 100 | 139 | 139 |
| C[C@H](Nc1cc2c(-c3ccc4c(c3)OCO4)noc2cn1)c1ccccc1 [TC-S-7005] |  | 0 | 0 | 0 |  | > 10000 | > 10000 | > 10000 |  |  |  |  |  | 97.4 | 96.2 | 98.8 | 90.5 | 108 | 106 | 120 | 100 | 91.6 | 99 | 96.5 | 105 | 107 | 101 | 97.9 | 0 | > 10000 | 106 | 98 | 105 | 97.2 | 107 |
| Oc1c(CN2CCCC2)cc(COCc2ccccc2)c2cccnc12 [UC-112] | 4.9 | 10.9 | 7.5 | 9.4 | 1760 | 927 | 1660 | 1460 | 97.6 | 91.1 | 94 | 88.9 | 43.1 | 97.8 | 95.3 | 94 | 51.7 | 6.8 | 97.5 | 94.5 | 96.2 | 81.6 | 16.6 | 92.2 | 95.9 | 99.1 | 73 | 3.6 | 1 |  | 97.7 | 94.8 | 108 | 107 | 69.5 |
| O=C(COc1ccc(C(=O)c2ccccc2)cc1)NC1CCN(Cc2ccccc2)CC1 [adiporon] | 0 | 0 | 0 | 0 | > 10000 | > 10000 | > 10000 | > 10000 | 96.4 | 93.2 | 100 | 98.1 | 95.7 | 97.1 | 98.2 | 93.8 | 96.9 | 101 | 92.1 | 94.3 | 94.8 | 107 | 85.4 | 95.2 | 92.7 | 99 | 91.6 | 91.9 |  |  |  |  |  |  |  |
| Cc1ccc(NC(=O)c2ccc(CN3CC[C@H](N(C)C)C3)c(C(F)(F)F)c2)cc1Nc1nccc(-c2cncnc2)n1 [bafetinib] | 0.7 | 0.9 | 6.9 | 0.5 | > 10000 | > 10000 | 1800 | > 10000 | 99.9 | 101 | 103 | 99.4 | 79 | 96.7 | 98.1 | 96.5 | 99.7 | 76.1 | 98.4 | 89.2 | 91 | 85.1 | 19.5 | 97.1 | 108 | 92.9 | 104 | 79 | 1 |  | 98.7 | 107 | 98.8 | 99.9 | 74.8 |
| O=S(=O)(O)c1cc(I)c(O)c2ncccc12 [chiniofon] |  |  | 0 | 0 |  |  | > 10000 | > 10000 |  |  |  |  |  |  |  |  |  |  | 111 | 102 | 104 | 102 | 99 | 107 | 101 | 95.4 | 104 | 94.8 | 0 | > 10000 | 98.2 | 102 | 94.6 | 95.9 | 93.6 |
